The numbers were not newly measured in PubChem BioAssay AID1259409 (Chemical Carcinogenesis Research Information System (CCRIS), 2018), which cites them from elsewhere.

The data set relates to rodent chemically induced tumor inhibition, incidence and multiplicity. As to the kind of experiment: CCRIS tumor inhibitor studies.

Turning to `CC1=C[C@H]2[C@@]3(O)[C@H](C)C[C@]4(OC(=O)Cc5ccccc5)C([C@@H]3C=C(CO)C[C@]2(O)C1=O)C4(C)C` (some centres not stated), the “tumour outcome (control, treated, inhibition, significance)” value was 100%, 82%, 18%, not calculated (Carcinogen: 7,12-DIMETHYLBENZ[A]ANTHRACENE, 57-97-6, Dose [Inhibitor]: 0, 2.14 NMOL 15 D POST INITIATION DOSE FOLLOWED BY 2.14 NMOL 2/WK DURING WK 3-22 APPLIED 15 MIN PRIOR TO EACH PROMOTION, Route [Inhibitor]: DERMAL, Species: MOUSE, Strain/Sex: CD-1/FEMALE, Target Tissue: Type of Lesion: SKIN: PAPILLOMA, Dose [Carcinogen]: 20 NMOL IN 200 µL ACETONE ONCE); 100%, 97%, 3%, not calculated (Carcinogen: 7,12-DIMETHYLBENZ[A]ANTHRACENE, 57-97-6, Dose [Inhibitor]: 0, 2.14 NMOL 15 D POST INITIATION DOSE FOLLOWED BY 2.14 PMOL 2/WK DURING WK 3-22 APPLIED 15 MIN PRIOR TO EACH PROMOTION, Route [Inhibitor]: DERMAL, Species: MOUSE, Strain/Sex: CD-1/FEMALE, Target Tissue: Type of Lesion: SKIN: PAPILLOMA, Dose [Carcinogen]: 20 NMOL IN 200 µL ACETONE ONCE); 100%, 53%, 47%, not calculated (Carcinogen: 7,12-DIMETHYLBENZ[A]ANTHRACENE, 57-97-6, Dose [Inhibitor]: 0, 2.14 NMOL 15 D POST INITIATION DOSE FOLLOWED BY 21.4 NMOL 2/WK DURING WK 3-22 APPLIED 15 MIN PRIOR TO EACH PROMOTION, Route [Inhibitor]: DERMAL, Species: MOUSE, Strain/Sex: CD-1/FEMALE, Target Tissue: Type of Lesion: SKIN: PAPILLOMA, Dose [Carcinogen]: 20 NMOL IN 200 µL ACETONE ONCE); 100%, 100%, 0%, not significant (Carcinogen: 7,12-DIMETHYLBENZ[A]ANTHRACENE, 57-97-6, Dose [Inhibitor]: 0, 2.14 NMOL 15 D POST INITIATION DOSE FOLLOWED BY 21.4 PMOL 2/WK DURING WK 3-22 APPLIED 15 MIN PRIOR TO EACH PROMOTION, Route [Inhibitor]: DERMAL, Species: MOUSE, Strain/Sex: CD-1/FEMALE, Target Tissue: Type of Lesion: SKIN: PAPILLOMA, Dose [Carcinogen]: 20 NMOL IN 200 µL ACETONE ONCE); 100%, 95%, 5%, not calculated (Carcinogen: 7,12-DIMETHYLBENZ[A]ANTHRACENE, 57-97-6, Dose [Inhibitor]: 0, 2.14 NMOL 15 D POST INITIATION DOSE FOLLOWED BY 214 PMOL 2/WK DURING WK 3-22 APPLIED 15 MIN PRIOR TO EACH PROMOTION D, Route [Inhibitor]: DERMAL, Species: MOUSE, Strain/Sex: CD-1/FEMALE, Target Tissue: Type of Lesion: SKIN: PAPILLOMA, Dose [Carcinogen]: 20 NMOL IN 200 µL ACETONE ONCE); 100%, 65%, 35%, not calculated (Carcinogen: 7,12-DIMETHYLBENZ[A]ANTHRACENE, 57-97-6, Dose [Inhibitor]: 2.14 NMOL BEGINNING 15 D POST INITIATION DOSE AND EVERY THURS. AS WELL AS 21.4 NMOL 15 MIN PRIOR TO EACH PROMOTION DOSE, Route [Inhibitor]: DERMAL, Species: MOUSE, Strain/Sex: CD-1/FEMALE, Target Tissue: Type of Lesion: SKIN: PAPILLOMA, Dose [Carcinogen]: 20 NMOL IN 200 µL ACETONE ONCE). Also, the “tumour outcome (control, treated, inhibition, significance)” value (Carcinogen: 7,12-DIMETHYLBENZ[A]ANTHRACENE, 57-97-6, Dose [Inhibitor]: 2.14 NMOL BEGINNING 15 D POST INITIATION DOSE AND EVERY WED. AS WELL AS 21.4 NMOL 15 MIN PRIOR TO PROMOTION DOSE ON FRI., Route [Inhibitor]: DERMAL, Species: MOUSE, Strain/Sex: CD-1/FEMALE, Target Tissue: Type of Lesion: SKIN: PAPILLOMA, Dose [Carcinogen]: 20 NMOL IN 200 µL ACETONE ONCE) is reported as 98%, 50%, 49%, not calculated.
For `Oc1cccc(O)c1O`, the “tumour outcome (control, treated, inhibition, significance)” value reads like this: (Carcinogen: BENZO[A]PYRENE, 50-32-8, Dose [Inhibitor]: 5 MG IN 0.1 ML ACETONE 3/WK ADMINISTERED SIMULTANEOUSLY WITH CARCINOGEN FOR DURATION OF STUDY (STUDY DURATION: 440 D), Route [Inhibitor]: DERMAL, Species: MOUSE, Strain/Sex: ICR/FEMALE, Target Tissue: Type of Lesion: SKIN: PAPILLOMA, Dose [Carcinogen]: 5 UG IN 0.1 ML ACETONE THAT ALSO CONTAINED AGENT 3/WK, Promoter: NONE USED) 16/50 (32%), 40/50 (80%), -150%, not calculated; (Carcinogen: BENZO[A]PYRENE, 50-32-8, Dose [Inhibitor]: 5 MG IN 0.1 ML ACETONE 3/WK ADMINISTERED SIMULTANEOUSLY WITH CARCINOGEN FOR DURATION OF STUDY (STUDY DURATION: 440 D), Route [Inhibitor]: DERMAL, Species: MOUSE, Strain/Sex: ICR/FEMALE, Target Tissue: Type of Lesion: SKIN: SQUAMOUS CARCINOMA, Dose [Carcinogen]: 5 UG IN 0.1 ML ACETONE THAT ALSO CONTAINED AGENT 3/WK, Promoter: NONE USED) 12/50 (24%), 33/50 (66%), -175%, not calculated.
As to `CCC(C)(C)C(=O)O[C@H]1C[C@@H](C)C=C2C=C[C@H](C)[C@H](CC[C@@H]3C[C@@H](O)CC(=O)O3)[C@H]21`, the “tumour outcome (control, treated, inhibition, significance)” value runs as follows: (Carcinogen: 1,2-DIMETHYLHYDRAZINE, 540-73-8, Dose [Inhibitor]: 0, 0.02% IN DIET FOR 25 WK (STUDY DURATION: 25 WK), Route [Inhibitor]: ORAL, Species: MOUSE, Strain/Sex: ICR/FEMALE, Target Tissue: Type of Lesion: COLON: TUMOR, Dose [Carcinogen]: 10 MG/KG BW 1/WK FOR 15 WK, Promoter: NONE USED) 16/30 (53%), 12/30 (40%), 25%, not significant; (Carcinogen: 1,2-DIMETHYLHYDRAZINE, 540-73-8, Dose [Inhibitor]: 0, 0.1% IN DIET FOR 25 WK (STUDY DURATION: 25 WK), Route [Inhibitor]: ORAL, Species: MOUSE, Strain/Sex: ICR/FEMALE, Target Tissue: Type of Lesion: COLON: TUMOR, Dose [Carcinogen]: 10 MG/KG BW 1/WK FOR 15 WK, Promoter: NONE USED) 16/30 (53%), 11/30 (37%), 30%, not significant.
As for `CCCCC(=O)O[C@H]1CC[C@H]2[C@@H]3CCc4cc(O)ccc4[C@H]3CC[C@]12C`, the “tumour outcome (control, treated, inhibition, significance)” value (Carcinogen: DIMETHYLNITROSAMINE, 62-75-9, Dose [Inhibitor]: 1 MG IN CASTOR OIL ADMINISTERED TO IMMATURE RATS 1/4 WK FOR LIFE BEGINNING 100 D POST CARCINOGEN DOSE (STUDY DURATION: 1, Route [Inhibitor]: SUBCUTANEOUS, Species: RAT, Strain/Sex: STRAIN-CD/MALE, Target Tissue: Type of Lesion: KIDNEY TUBULE: ADENOMA, Dose [Carcinogen]: 30 MG/KG IN DISTILLED WATER ONCE, Promoter: NONE USED) is on record as 15/28 (54%), 9/25 (36%), 33%, not calculated; the “tumour outcome (control, treated, inhibition, significance)” value (Carcinogen: DIMETHYLNITROSAMINE, 62-75-9, Dose [Inhibitor]: 1 MG IN CASTOR OIL ADMINISTERED TO IMMATURE RATS 1/4 WK FOR LIFE BEGINNING 100 D POST CARCINOGEN DOSE (STUDY DURATION: 1, Route [Inhibitor]: SUBCUTANEOUS, Species: RAT, Strain/Sex: STRAIN-CD/MALE, Target Tissue: Type of Lesion: KIDNEY: MESENCHYMAL TUMOR, Dose [Carcinogen]: 30 MG/KG IN DISTILLED WATER ONCE, Promoter: NONE USED) is recorded as 16/28 (57%), 14/25 (56%), 2%, not significant; the “tumour outcome (control, treated, inhibition, significance)” value (Carcinogen: DIMETHYLNITROSAMINE, 62-75-9, Dose [Inhibitor]: 1 MG IN CASTOR OIL ADMINISTERED TO IMMATURE RATS 1/4 WK FOR LIFE BEGINNING 100 D POST CARCINOGEN DOSE (STUDY DURATION: 1, Route [Inhibitor]: SUBCUTANEOUS, Species: RAT, Strain/Sex: STRAIN-CD/MALE, Target Tissue: Type of Lesion: KIDNEY: TRANSITIONAL CELL TUMOR, Dose [Carcinogen]: 30 MG/KG IN DISTILLED WATER ONCE, Promoter: NONE USED) was 1/28 (4%), 0/25 (0%), 100%, not significant; the “tumour outcome (control, treated, inhibition, significance)” value (Carcinogen: DIMETHYLNITROSAMINE, 62-75-9, Dose [Inhibitor]: 1 MG IN CASTOR OIL ADMINISTERED TO IMMATURE RATS 1/4 WK FOR LIFE BEGINNING 100 D POST CARCINOGEN DOSE (STUDY DURATION: 1, Route [Inhibitor]: SUBCUTANEOUS, Species: RAT, Strain/Sex: STRAIN-CD/MALE, Target Tissue: Type of Lesion: LUNG: ALVEOGENIC TUMOR, Dose [Carcinogen]: 30 MG/KG IN DISTILLED WATER ONCE, Promoter: NONE USED) is reported as 19/28 (68%), 6/25 (24%), 65%, p<0.001; the “tumour outcome (control, treated, inhibition, significance)” value (Carcinogen: DIMETHYLNITROSAMINE, 62-75-9, Dose [Inhibitor]: 1 MG IN CASTOR OIL ADMINISTERED TO MATURE RATS 1/4 WK FOR LIFE BEGINNING 100 D POST CARCINOGEN DOSE (STUDY DURATION: 140, Route [Inhibitor]: SUBCUTANEOUS, Species: RAT, Strain/Sex: STRAIN-CD/MALE, Target Tissue: Type of Lesion: KIDNEY TUBULE: ADENOMA, Dose [Carcinogen]: 30 MG/KG IN DISTILLED WATER ONCE, Promoter: NONE USED) is 16/26 (62%), 18/28 (64%), -3%, not significant; the “tumour outcome (control, treated, inhibition, significance)” value (Carcinogen: DIMETHYLNITROSAMINE, 62-75-9, Dose [Inhibitor]: 1 MG IN CASTOR OIL ADMINISTERED TO MATURE RATS 1/4 WK FOR LIFE BEGINNING 100 D POST CARCINOGEN DOSE (STUDY DURATION: 140, Route [Inhibitor]: SUBCUTANEOUS, Species: RAT, Strain/Sex: STRAIN-CD/MALE, Target Tissue: Type of Lesion: LUNG: ALVEOGENIC TUMOR, Dose [Carcinogen]: 30 MG/KG IN DISTILLED WATER ONCE, Promoter: NONE USED) was 13/26 (50%), 3/28 (11%), 78%, p<0.05.
